Assay results: patent US20230065745A1, “PIPERIDINE-2,6-DIONE DERIVATIVES WHICH BIND TO CEREBLON, AND METHODS OF USE THEREOF” (Captor Therapeutics S.A., priority 2019, published 2023)

What was measured:
CK1α = CK1α degradation assay, Kelly cell line (Western blot densitometry); format: cell-based; conditions: 24 h
Procedure: (§1) Cells were seeded on 6-well plates, and the compounds to be tested were added at the desired concentration range. […] After 24 h incubation (37° C., 5% CO2), cells were washed and cell lysates were prepared using RIPA lysis buffer. The amount of protein was determined via BCA assay, and the appropriate quantity was then loaded on the precast gel for the protein separation. After primary and secondary Ab staining, the membranes were washed and signals developed. The densitometry analysis was implemented to obtain the numeric values used later in the protein level evaluation process.
(§2) The treatment with all compounds was carried out for 24 h.
(§3) Densitometry values are normalized to the loading control ((3-ACTIN) and presented as % of DMSO control, using the following labels: […]

IKZF3 = IKZF3 degradation assay, H929 cell line (Western blot densitometry); format: cell-based; conditions: 24 h
Procedure: as §1, with “seeded on 6- or 12-well plates, and” for “seeded on 6-well plates, and”, “h incubation (3TC, 5% CO2),” for “h incubation (37° C., 5% CO2),”, “cells were harvested, washed and” for “cells were washed and”
as §2, §3

IKZF1 = IKZF1 degradation assay, H929 cell line (Western blot densitometry); format: cell-based; conditions: for % of IKZF1 protein reduction, based on densitometry values: 24 h
Procedure: Cells were seeded on 6- or 12-well plates, and the compounds to be tested were added at the desired concentration range. […] After 6 or 24 h incubation (3TC, 5% CO2), cells were harvested, washed and cell lysates were prepared using RIPA lysis buffer. The amount of protein was determined via BCA assay, and the appropriate quantity was then loaded on the precast gel for the protein separation. After primary and secondary Ab staining, the membranes were washed and signals developed. The densitometry analysis was implemented to obtain the numeric values used later in the protein level evaluation process. […] The treatment with all compounds was carried out for 24 h.

[1] = molecular target: CRBN-DDB1 protein complex (Homo sapiens, UniProt Q96SW2); assay: Fluorescence Polarization (FP) assay, displacement of Cy5-labelled thalidomide; conditions: 25 nM CRBN-DDB1, 5 nM Cy5-labelled thalidomide, read-out: CRBN binding Ki
Sequence of CRBN-DDB1 protein complex (Q96SW2 whole entry): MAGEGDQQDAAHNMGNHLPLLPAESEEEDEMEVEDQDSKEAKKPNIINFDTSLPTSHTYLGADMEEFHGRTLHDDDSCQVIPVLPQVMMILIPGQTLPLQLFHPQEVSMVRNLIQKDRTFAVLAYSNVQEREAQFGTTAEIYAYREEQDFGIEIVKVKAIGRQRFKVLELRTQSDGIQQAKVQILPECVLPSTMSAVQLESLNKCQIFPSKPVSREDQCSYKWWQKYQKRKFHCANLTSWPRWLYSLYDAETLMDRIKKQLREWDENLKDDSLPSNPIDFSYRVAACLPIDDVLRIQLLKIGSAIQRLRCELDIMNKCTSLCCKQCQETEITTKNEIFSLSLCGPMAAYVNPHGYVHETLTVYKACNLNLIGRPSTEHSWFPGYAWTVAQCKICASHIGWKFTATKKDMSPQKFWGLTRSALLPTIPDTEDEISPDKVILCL
Sequence of CRBN-DDB1 protein complex (Q16531 whole entry partner): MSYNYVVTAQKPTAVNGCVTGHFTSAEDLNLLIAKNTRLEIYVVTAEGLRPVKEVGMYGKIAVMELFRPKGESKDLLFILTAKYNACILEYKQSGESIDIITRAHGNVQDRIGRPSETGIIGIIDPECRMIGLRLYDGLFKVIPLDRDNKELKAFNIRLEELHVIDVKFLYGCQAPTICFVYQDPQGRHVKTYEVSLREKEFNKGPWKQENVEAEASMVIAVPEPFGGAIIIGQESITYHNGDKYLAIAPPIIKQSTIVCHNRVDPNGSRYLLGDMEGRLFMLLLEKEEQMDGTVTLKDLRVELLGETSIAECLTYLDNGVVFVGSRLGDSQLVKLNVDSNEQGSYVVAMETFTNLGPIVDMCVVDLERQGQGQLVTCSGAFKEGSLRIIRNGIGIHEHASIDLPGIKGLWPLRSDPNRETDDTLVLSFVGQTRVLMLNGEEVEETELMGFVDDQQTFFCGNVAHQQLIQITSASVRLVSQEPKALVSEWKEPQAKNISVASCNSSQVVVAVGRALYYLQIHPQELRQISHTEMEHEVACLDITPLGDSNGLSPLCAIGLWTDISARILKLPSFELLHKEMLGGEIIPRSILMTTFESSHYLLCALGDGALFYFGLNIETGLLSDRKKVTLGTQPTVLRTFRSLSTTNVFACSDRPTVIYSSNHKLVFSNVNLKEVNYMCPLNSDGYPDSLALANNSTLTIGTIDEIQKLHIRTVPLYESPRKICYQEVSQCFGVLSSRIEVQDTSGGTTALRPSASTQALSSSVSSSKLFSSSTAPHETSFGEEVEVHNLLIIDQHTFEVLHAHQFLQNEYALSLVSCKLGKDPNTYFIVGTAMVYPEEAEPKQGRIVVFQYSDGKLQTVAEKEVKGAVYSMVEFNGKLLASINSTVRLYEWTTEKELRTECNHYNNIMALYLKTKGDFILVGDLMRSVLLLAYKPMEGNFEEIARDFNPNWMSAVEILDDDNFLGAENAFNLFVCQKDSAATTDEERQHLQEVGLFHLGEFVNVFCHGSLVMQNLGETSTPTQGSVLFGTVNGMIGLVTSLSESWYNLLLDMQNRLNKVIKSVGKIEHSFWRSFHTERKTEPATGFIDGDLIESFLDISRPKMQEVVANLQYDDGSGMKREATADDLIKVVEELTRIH
Procedure: CRBN-DDB1 protein complex was mixed with Cy5-labelled thalidomide and a compound to be tested (the “test compound”). […] The test solution was added to a 384-well assay plate.
The plate was spun-down (1 min, 1000 rpm, 22° C.) and then shaken using a VibroTurbulator for 10 min at room temperature (20-25° C.), with the frequency set to level 3. The assay plate with protein and the tracer was incubated for 60 min at room temperature (20-25° C.) prior to read-out with a plate reader.
The FP experiment was carried out with various concentrations of the test compounds in order to measure Ki values.

Row | Ki [1] | SMILES | % of CK1α protein reduction, based on densitometry values (CK1α; 1 μM) | % of CK1α protein reduction, based on densitometry values (CK1α; 10 μM) | % of CK1α protein reduction, based on densitometry values (CK1α; 20 μM) | CK1α degradation (in words) (CK1α) | % of IKZF3 protein reduction, based on densitometry values (IKZF3; 1 μM) | % of IKZF3 protein reduction, based on densitometry values (IKZF3; 10 μM) | % of IKZF1 protein reduction, based on densitometry values (IKZF1; 1 μM) | % of IKZF1 protein reduction, based on densitometry values (IKZF1; 10 μM) | % of IKZF1 protein reduction, IKZF 1 (24 H, 20 μM) (IKZF1)
1 | < 5 µM | O=C1CCC(NC(=O)c2scc3cccnc23)C(=O)N1 (centres unmarked) [Compound 107, N-(2,6-dioxopiperidin-3-yl)thieno[3,4-b]pyridine-7-carboxamide] |  |  |  |  | ≤25% (≤25% for 0-25% of IKZF3 protein reduction) | ≤25% (≤25% for 0-25% of IKZF3 protein reduction) | ≤25% (≤25% for 0-25% of IKZF1 protein reduction) | ≤25% (≤25% for 0-25% of IKZF1 protein reduction) | 
2 | < 5 µM | COc1sccc1C(=O)NC1CCC(=O)NC1=O (centres unmarked) [Compound 20, N-(2,6-dioxopiperidin-3-yl)-2-methoxythiophene-3-carboxamide] |  |  |  |  | ≤25% (≤25% for 0-25% of IKZF3 protein reduction) | ≤25% (≤25% for 0-25% of IKZF3 protein reduction) | ≤25% (≤25% for 0-25% of IKZF1 protein reduction) | ≤25% (≤25% for 0-25% of IKZF1 protein reduction) | ≤25% (≤25% for 0-25% of IKZF1 protein reduction)
3 | < 5 µM | COc1ccsc1C(=O)NC1CCC(=O)NC1=O (centres unmarked) [Compound 108, N-(2,6-dioxopiperidin-3-yl)-3-methoxythiophene-2-carboxamide] |  |  | >25% (>25% for 26-74% of CK1α protein reduction) |  | ≤25% (≤25% for 0-25% of IKZF3 protein reduction) | ≤25% (≤25% for 0-25% of IKZF3 protein reduction) | ≤25% (≤25% for 0-25% of IKZF1 protein reduction) | ≤25% (≤25% for 0-25% of IKZF1 protein reduction) | ≤25% (≤25% for 0-25% of IKZF1 protein reduction)

More lines, now with the values behind:

Row | SMILES | Ki [1] | % of CK1α protein reduction, based on densitometry values (CK1α; 1 μM) | % of CK1α protein reduction, based on densitometry values (CK1α; 10 μM) | % of CK1α protein reduction, based on densitometry values (CK1α; 20 μM) | CK1α degradation (in words) (CK1α) | % of IKZF3 protein reduction, based on densitometry values (IKZF3; 1 μM) | % of IKZF3 protein reduction, based on densitometry values (IKZF3; 10 μM) | % of IKZF1 protein reduction, based on densitometry values (IKZF1; 1 μM) | % of IKZF1 protein reduction, based on densitometry values (IKZF1; 10 μM) | % of IKZF1 protein reduction, IKZF 1 (24 H, 20 μM) (IKZF1)
4 | Nc1cccc2c1C(=O)N(C1CCC(=O)NC1=O)C2=O (centres unmarked) [Pomalidomide, pomalidomide, reference compound] |  | >25% (>25% for 26-74% of CK1α protein reduction) | >25% (>25% for 26-74% of CK1α protein reduction) | >25% (>25% for 26-74% of CK1α protein reduction) | to a lesser degree | ≥75% (≥75% for 75-100% of IKZF3 protein reduction) | ≥75% (≥75% for 75-100% of IKZF3 protein reduction) | ≥75% (≥75% for 75-100% of IKZF1 protein reduction) | ≥75% (≥75% for 75-100% of IKZF1 protein reduction) | ≥75% (≥75% for 75-100% of IKZF1 protein reduction)
5 | Cc1nc2cccc(N)c2c(=O)n1C1CCC(=O)NC1=O (centres unmarked) [CC-122, reference compound] |  | ≤25% (≤25% for 0-25% of CK1α protein reduction) | ≤25% (≤25% for 0-25% of CK1α protein reduction) | ≤25% (≤25% for 0-25% of CK1α protein reduction) | lack of degradation | ≥75% (≥75% for 75-100% of IKZF3 protein reduction) | ≥75% (≥75% for 75-100% of IKZF3 protein reduction) | ≥75% (≥75% for 75-100% of IKZF1 protein reduction) | ≥75% (≥75% for 75-100% of IKZF1 protein reduction) | 
